# In patent publication US9326985B2, “Heteroaryl pyridone and aza-pyridone amide compounds” (Genentech, Inc., priority 2013, dated 2016):
# pIC50: −log10 of the molar value.
# Test system: CD69 by B lymphocytes in human whole blood activated with goat F(ab')2 anti-human IgM
# Assay: CD69 Whole Blood Assay (CD69 Hu Blood FACS)
# Type: cell-based
# Conditions: CD69 positive of CD20 positive cells
# Description: CD69 is a type II C-type lectin involved in lymphocyte migration and cytokine secretion.
# Human blood is obtained from healthy volunteers, with the following restrictions: 1 week drug-free, non-smokers. Blood (approximately 20 mls to test 8 compounds) is collected by venipuncture into Vacutainer® (Becton, Dickinson and Co.) tubes with sodium heparin.
# Solutions of Formula I compounds at 10 mM in DMSO are diluted 1:10 in 100% DMSO, then are diluted by three-fold serial dilutions in 100% DMSO for a ten point dose-response curve. The compounds are further diluted 1:10 in PBS and then an aliquot of 5.5 μl of each compound is added in duplicate to a 2 ml 96-well plate; 5.5 μl of 10% DMSO in PBS is added as control and no-stimulus wells. Human whole blood—HWB (100 μl) is added to each well. After mixing the plates are incubated at 37° C., 5% CO2, 100% humidity for 30 minutes. Goat F(ab′)2 anti-human IgM (10 μl of a 500 μg/ml solution, 50 μg/ml final) is added to each well (except the no-stimulus wells) with mixing and the plates are incubated for an additional 20 hours. At the end of the 20 hour incubation, samples are incubated with fluorescent labeled antibodies for 30 minutes, at 37° C., 5% CO2, 100% humidity. Include induced control, unstained and single stains for compensation adjustments and initial voltage settings. Samples are then lysed with PharM Lyse™ (BD Biosciences Pharmingen) according to the manufacturer's instructions. Samples are then transferred to a 96 well plate suitable to be run on the BD Biosciences HTS 96 well system on the LSRII machine. Data acquired and Mean Fluorescence Intensity values were obtained using BD Biosciences DIVA Software. Results are initially analyzed by FACS analysis software (Flow Jo).
# [1] = Lymphocyte, Table 1, anti-IgM stimulation
# [2] = Lymphocyte, Table 2, anti-IgM stimulation
# [3] = Homo sapiens, Lymphocyte, Table 1, anti-IgM stimulation
smiles,measurement,setting,value
"Cn1cc(-c2ccnc(N3CCn4c(cc5c4CC(C)(C)C5)C3=O)c2CO)cc(NC(=O)C2CCC2)c1=O [Compound 101, N-[5-[2-(7,7-dimethyl-4-oxo-1,2,6,8-tetrahydrocyclopenta[3,4]pyrrolo[3,5-b]pyrazin-3-yl)-3-(hydroxymethyl)-4-pyridyl]-1-methyl-2-oxo-3-pyridyl]cyclobutanecarboxamide]",pIC50,[1],5.38
"CC(=O)Nc1cc(-c2ccnc(N3CCn4c(cc5c4CC(C)(C)C5)C3=O)c2CO)cn(C)c1=O [Compound 121, N-[5-[2-(7,7-dimethyl-4-oxo-1,2,6,8-tetrahydrocyclopenta[3,4]pyrrolo[3,5-b]pyrazin-3-yl)-3-(hydroxymethyl)-4-pyridyl]-1-methyl-2-oxo-3-pyridyl]acetamide]",pIC50,[1],6.27
"CCC(=O)Nc1cc(-c2ccnc(N3CCn4c(cc5c4CC(C)(C)C5)C3=O)c2CO)cn(C)c1=O [Compound 107, N-[5-[2-(7,7-dimethyl-4-oxo-1,2,6,8-tetrahydrocyclopenta[3,4]pyrrolo[3,5-b]pyrazin-3-yl)-3-(hydroxymethyl)-4-pyridyl]-1-methyl-2-oxo-3-pyridyl]propanamide]",pIC50,[1],5.80
"Cn1cc(-c2ccnc(N3CCn4c(cc5c4CC(C)(C)C5)C3=O)c2CO)cc(NC(=O)C2CC2F)c1=O (centres unmarked) [Compound 117, N-[5-[2-(7,7-dimethyl-4-oxo-1,2,6,8-tetrahydrocyclopenta[3,4]pyrrolo[3,5-b]pyrazin-3-yl)-3-(hydroxymethyl)-4-pyridyl]-1-methyl-2-oxo-3-pyridyl]-2-fluoro-cyclopropanecarboxamide]",pIC50,"Table 1, anti-IgM stimulation",6.25
"Cn1cc(-c2ccnc(N3CCn4c(cc5c4CC(C)(C)C5)C3=O)c2CO)cc(NC(=O)[C@@H]2CCCO2)c1=O (stereo in doubt) [Compound 149, (2S)—N-[5-[2-(7,7-dimethyl-4-oxo-1,2,6,8-tetrahydrocyclopenta[3,4]pyrrolo[3,5-b]pyrazin-3-yl)-3-(hydroxymethyl)-4-pyridyl]-1-methyl-2-oxo-3-pyridyl]tetrahydrofuran-2-carboxamide]",pIC50,[2],< 5.20
"CCCC(=O)Nc1cc(-c2ccnc(N3CCn4c(cc5c4CC(C)(C)C5)C3=O)c2CO)cn(C)c1=O [Compound 163, N-[5-[2-(7,7-dimethyl-4-oxo-1,2,6,8-tetrahydrocyclopenta[3,4]pyrrolo[3,5-b]pyrazin-3-yl)-3-(hydroxymethyl)-4-pyridyl]-1-methyl-2-oxo-3-pyridyl]butanamide]",pIC50,[2],5.72
"Cn1cc(-c2ccnc(N3CCn4c(cc5c4CC(C)(C)C5)C3=O)c2CO)cc(NC(=O)[C@H]2C[C@H]2F)c1=O [Compound 119, (1R,2R)—N-[5-[2-(7,7-dimethyl-4-oxo-1,2,6,8-tetrahydrocyclopenta[3,4]pyrrolo[3,5-b]pyrazin-3-yl)-3-(hydroxymethyl)-4-pyridyl]-1-methyl-2-oxo-3-pyridyl]-2-fluoro-cyclopropanecarboxamide]",pIC50,[3],6.91
"Cn1cc(-c2ccnc(-n3ncc4cc(C(C)(C)C)cc(F)c4c3=O)c2CO)cc(NC(=O)C2CC2)c1=O [Compound 125, N-[5-[2-(6-tert-butyl-8-fluoro-1-oxo-phthalazin-2-yl)-3-(hydroxymethyl)-4-pyridyl]-1-methyl-2-oxo-3-pyridyl]cyclopropanecarboxamide]",pIC50,[3],7.20
"COCC(=O)Nc1cc(-c2ccnc(N3CCn4c(cc5c4CC(C)(C)C5)C3=O)c2CO)cn(C)c1=O [Compound 157, N-[5-[2-(7,7-dimethyl-4-oxo-1,2,6,8-tetrahydrocyclopenta[3,4]pyrrolo[3,5-b]pyrazin-3-yl)-3-(hydroxymethyl)-4-pyridyl]-1-methyl-2-oxo-3-pyridyl]-2-methoxy-acetamide]",pIC50,[2],< 5.36
"Cn1cc(-c2ccnc(N3CCc4c(cc5n4CCCC5)C3=O)c2CO)cc(NC(=O)C2CC2)c1=O [Compound 133, N-[5-[3-(hydroxymethyl)-2-(1-oxo-3,4,6,7,8,9-hexahydropyrido[3,4-b]indolizin-2-yl)-4-pyridyl]-1-methyl-2-oxo-3-pyridyl]cyclopropanecarboxamide]",pIC50,[2],< 5.37
"Cn1cc(-c2ccnc(N3CCn4c(cc5c4CC(C)(C)C5)C3=O)c2CO)cc(NC(=O)C2(F)CC2)c1=O [Compound 134, N-[5-[2-(7,7-dimethyl-4-oxo-1,2,6,8-tetrahydrocyclopenta[3,4]pyrrolo[3,5-b]pyrazin-3-yl)-3-(hydroxymethyl)-4-pyridyl]-1-methyl-2-oxo-3-pyridyl]-1-fluoro-cyclopropanecarboxamide]",pIC50,[2],5.38
"Cn1cc(-c2ccnc(N3CCn4c(cc5c4CC(C)(C)C5)C3=O)c2CO)cc(NC(=O)CC2CC2)c1=O [Compound 103, 2-cyclopropyl-N-[5-[2-(7,7-dimethyl-4-oxo-1,2,6,8-tetrahydrocyclopenta[3,4]pyrrolo[3,5-b]pyrazin-3-yl)-3-(hydroxymethyl)-4-pyridyl]-1-methyl-2-oxo-3-pyridyl]acetamide]",pIC50,[1],5.31
"Cn1cc(-c2ccnc(N3CCn4c(cc5c4CC(C)(C)C5)C3=O)c2CO)cc(NC(=O)[C@@H]2C[C@@H]2F)c1=O [Compound 120, (1S,2S)—N-[5-[2-(7,7-dimethyl-4-oxo-1,2,6,8-tetrahydrocyclopenta[3,4]pyrrolo[3,5-b]pyrazin-3-yl)-3-(hydroxymethyl)-4-pyridyl]-1-methyl-2-oxo-3-pyridyl]-2-fluoro-cyclopropanecarboxamide]",pIC50,[3],7.07
"Cn1cc(-c2ccnc(N3CCn4c(cc5c4CC(C)(C)C5)C3=O)c2CO)cc(NC(=O)C2(O)CC2)c1=O [Compound 135, N-[5-[2-(7,7-dimethyl-4-oxo-1,2,6,8-tetrahydrocyclopenta[3,4]pyrrolo[3,5-b]pyrazin-3-yl)-3-(hydroxymethyl)-4-pyridyl]-1-methyl-2-oxo-3-pyridyl]-1-hydroxy-cyclopropanecarboxamide]",pIC50,[2],< 5.47
"Cn1cc(-c2ccnc(N3CCn4c(cc5c4CC(C)(C)C5)C3=O)c2CO)cc(NC(=O)C2CC2F)c1=O (centres unmarked) [Compound 118, N-[5-[2-(7,7-dimethyl-4-oxo-1,2,6,8-tetrahydrocyclopenta[3,4]pyrrolo[3,5-b]pyrazin-3-yl)-3-(hydroxymethyl)-4-pyridyl]-1-methyl-2-oxo-3-pyridyl]-2-fluoro-cyclopropanecarboxamide]",pIC50,"Table 1, anti-IgM stimulation",6.66
"Cn1cc(-c2ccnc(N3CCn4c(cc5c4CC(C)(C)C5)C3=O)c2CO)cc(NC(=O)[C@H]2CCCO2)c1=O (stereo in doubt) [Compound 148, (2R)—N-[5-[2-(7,7-dimethyl-4-oxo-1,2,6,8-tetrahydrocyclopenta[3,4]pyrrolo[3,5-b]pyrazin-3-yl)-3-(hydroxymethyl)-4-pyridyl]-1-methyl-2-oxo-3-pyridyl]tetrahydrofuran-2-carboxamide]",pIC50,[2],< 5.21
"Cn1cc(-c2ccnc(N3CCn4c(cc5c4CC(C)(C)C5)C3=O)c2CO)cc(NC(=O)c2cccnc2)c1=O [Compound 109, N-[5-[2-(7,7-dimethyl-4-oxo-1,2,6,8-tetrahydrocyclopenta[3,4]pyrrolo[3,5-b]pyrazin-3-yl)-3-(hydroxymethyl)-4-pyridyl]-1-methyl-2-oxo-3-pyridyl]pyridine-3-carboxamide]",pIC50,[1],< 5.28
